Results as given in patent US8211646B1, “Methods of treating ovarian cancer by modulating SnoN” (University of South Florida, priority 2008, dated 2012).

Tests used:
Type in all cases: cell-based
glutathione (GSH) = experiment: GSH-Glo glutathione assay; conditions: T80, HEY, SKOV3; 18 hours
Experimental: Glutathione (GSH) was measured using the GSH Glo kit (Promega). Briefly, T80, HEY, and SKOV3 ovarian cells were plated at 5000 cells/well in opaque white 96 well plates. Following overnight attachment, cells were treated with As2O3 for 18 hours. Following cell treatments, the media was discarded and fresh PBS was added for washout followed by the addition of 100 μl of GSH-Glo reagent. Following a 2 minute shake, the cells were incubated at room temperature for 30 minutes followed by the addition of reconstituted luciferase detection reagent. The cells were incubated for a further 15 minutes at room temperature and the plate was read on a Biotek luminescence plate reader. All measurements were performed in triplicate.

[1] = system: TAK1, SMAD2/3, TGFβRII, AKT, phospho-SMAD2; experiment: Western analysis of other TGFβ signaling mediators
Experimental: Proteins were resolved on an 8%, 12%, or 15% SDS-PAGE gel (as appropriate) and electrophoretically transferred to polyvinyldifluoride (PVDF) membranes. After blocking with 5% (w/v) milk in TBST (Tris-Buffered Saline containing 0.1% Tween-20) for one hour at room temperature, membranes were incubated with primary antibodies (at appropriate dilution) overnight at 4° C., followed by extensive washing and incubation for 1 hour with the appropriate horseradish peroxidase-conjugated secondary antibodies (BioRad, Hercules, Calif.). Blots were washed extensively. A rabbit polyclonal EVI1 antibody was obtained (1:3000 dilution, St. Jude's Children's Hospital, Memphis, Tenn.). SnoN rabbit polyclonal (1:1000 dilution), PML, and p21 SMURF2 rabbit polyclonal (1:500 dilution), MRP1 mouse monoclonal (1:500 dilution) and GAPDH mouse monoclonal (1:250 dilution) antibodies were obtained from Santa Cruz Biotechnology (Santa Cruz, Calif.). TGFβRII rabbit polyclonal (1:1000 dilution) antibody was obtained from Strategic Diagnostics (Newark, Del.). Smad2/3 rabbit polyclonal (1:1000 dilution), Beclin-1 rabbit polyclonal (1:1000 dilution), AKT rabbit polyclonal (1:1000 dilution), TAK1 rabbit polyclonal (1:1000 dilution), PARP rabbit polyclonal (1:1000 dilution), Beclin-1 rabbit polyclonal (1:1000 dilution), caspase-3 rabbit polyclonal (1:1000) which detects the pro-caspase form, and ATG5 rabbit polyclonal (1:1000 dilution), LC3-II rabbit polyclonal (1:1000 dilution) antibodies were obtained from Cell Signaling Technology (Danvers, Mass.). The HSP27 mouse monoclonal (1:1000 dilution) antibody was obtained from Stressgen (Ann Arbor, Mich.). Blots were developed using chemiluminescence substrates (Amersham Piscataway, N.J. or BioRad, Hercules, Calif.). Monoclonal PAI-1 antibody was obtained from BD Pharmingen. PSMAD2, total SMAD2/3, p-ERK, p-AKT, and total AKT antibodies were obtained from Cell Signaling Technology. A monoclonal antibody against Arkadia was obtained from Abnova (Taiwan).
Densitometric analysis was performed using the HP Scanjet 5590 and the Image J program (Image Processing and Analysis in Java, NIH Image Software). Bands were selected and the intensity values were normalized to those for GAPDH. The values are presented as fold-changes relative to control siRNA treated cells.
The clinical inhibitors As2O3, geldanamycin (17-AAG) (dissolved in dimethylsulfoxide [DMSO]), and MG132 (dissolved in DMSO) were obtained from Sigma-Aldrich (St. Louis, Mo.), Fisher Scientific (Pittsburgh, Pa.), and Alexis Biochemicals (Farmingdale, N.Y.), respectively. N-acetyl-L-cysteine (NAC; dissolved in media) and Bortezomib (PS-341; dissolved in DMSO) were obtained from Fisher Scientific. 3-Methyladenine (3-MA; dissolved in media) was obtained from MP Biomedicals (Solon, Ohio). Tiron (4,5-Dihydroxy-1,3-benzenedisulfonic acid, dissolved in media) was obtained from Fisher Scientific. zVAD-fmk (dissolved in DMSO) and bafilomycin A (dissolved in DMSO) was obtained from Axxora LLC (San Diego, Calif.). Bovine catalase was obtained from Sigma-Aldrich. HBED and Mn TBAP was obtained from ENZO Life Sciences (Farmingdale, N.Y.). Ovarian cells were plated in 6-well plates at 250,000 cells per well and grown in complete medium. The following day, the cells were treated with 5 μM MG132, As2O3 (between 2-50 μM), 17-AAG (between 2-50 μM), NAC (Fisher Scientific, between 25 μM to 1 mM), Tiron (between 25 μM to 1 mM), 3-MA (0.1 mM to 10 mM), or zVAD-fmk (25 μM to 100 μM). For control cells, DMSO (a final concentration of <0.5%) was added to compare appropriately to drugs dissolved in DMSO. After the appropriate incubation time (6 or 18 hours), cell lysates were collected, protein quantified, and SDS-PAGE/western analysis was performed. In addition, for selected studies, RNA was isolated, quantified, and used for qPCR analysis.

T80, HEY and SKOV3 cells = experiment: Annexin V-propidium iodide apoptosis assay; conditions: As2O3 treatment
Experimental: For assessment of apoptosis, the Annexin V-propidium iodide staining kit (Calbiochem, San Diego, Calif.) was used according to the manufacturer's protocol. Briefly, cells were treated with As2O3 for 24 hours at which time both the floating and adherent cells (removed by trypsinization) were collected. Cells were resuspended in PBS followed by the addition of annexin V-FITC and propidium iodide. The samples were then analyzed by flow cytometry at the MD Anderson Cancer Center FACS Core Facility. The FITC and the propidium iodide signals were detected at 518 nm with FL1 and at 620 nm with FL2, respectively.

**Q.** Arsenic trioxide [As2O3] was tested. Which GSH levels (glutathione (GSH)) did it give?
**A.** markedly reduced

**Q.** What about the “TAK1, SMAD2/3, TGFβRII and AKT protein” value ([1]; HEY and OVCA429, 18 hours, increasing doses) of the same substance?
**A.** markedly reduced

**Q.** What about the “EVI1, TAK1, SMAD2/3, TGFβRII expression levels” value ([1]; HEY, 18 hours As2O3) of the same substance?
**A.** Dramatic decreases

**Q.** What about the apoptotic percentage (T80, HEY and SKOV3 cells; SKOV3 and HEY) of the same substance?
**A.** < 20%

**Q.** And the apoptotic percentage (T80, HEY and SKOV3 cells; T80 (low expressing EVI1 cell line))?
**A.** > 80%
